From PubChem BioAssay (NCI)
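Grown in 96-well plates, cells were treated for 48 hours with each compound at five concentrations. Insufficient inhibition: endpoint recorded as highest concentration tested. GI50 marks 50% less growth. TGI denotes the concentration required for complete inhibition of growth.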

Legend:
Assay in all cases: NCI anticancer screen, dose series, 48 h
LXFL 529 NSCLC = system: LXFL 529 NSCLC
DMS 273 small cell lung = system: DMS 273 small cell lung
HOP-92 NSCLC = system: HOP-92 NSCLC
M14 melanoma = system: M14 melanoma
HCT-116 colon = system: HCT-116 colon
DLD-1 colon = system: DLD-1 colon
SF-268 CNS = system: SF-268 CNS
LOX IMVI melanoma = system: LOX IMVI melanoma
SK-MEL-28 melanoma = system: SK-MEL-28 melanoma
SK-MEL-5 melanoma = system: SK-MEL-5 melanoma
SN12C renal = system: SN12C renal
EKVX NSCLC = system: EKVX NSCLC
UACC-62 melanoma = system: UACC-62 melanoma
MDA-MB-231 breast = system: MDA-MB-231 breast
DU-145 prostate = system: DU-145 prostate
BT-549 breast = system: BT-549 breast

| SMILES | TGI (LXFL 529 NSCLC) | TGI (DMS 273 small cell lung) | TGI (HOP-92 NSCLC) | TGI (M14 melanoma) | TGI (HCT-116 colon) | TGI (DLD-1 colon) | TGI (SF-268 CNS) | TGI (LOX IMVI melanoma) | TGI (SK-MEL-28 melanoma) | TGI (SK-MEL-5 melanoma) | TGI (SN12C renal) | TGI (EKVX NSCLC) | TGI (UACC-62 melanoma) | TGI (MDA-MB-231 breast) | TGI (DU-145 prostate) | TGI (BT-549 breast) | GI50 (DMS 273 small cell lung) | GI50 (M14 melanoma) | GI50 (SK-MEL-28 melanoma) | GI50 (EKVX NSCLC) |
| --- | --- | --- | --- | --- | --- | --- | --- | --- | --- | --- | --- | --- | --- | --- | --- | --- | --- | --- | --- | --- |
| CC(C)C1C(=O)NC(CO)Cc2c[nH]c3c(C(c4c[nH]c5ccccc45)C(O)CO)ccc(c23)N1C (stereo unspecified) | > 100 µM | > 100 µM | > 100 µM | > 100 µM | > 100 µM | > 100 µM | > 100 µM | > 100 µM | > 100 µM | > 100 µM | > 100 µM | > 100 µM | > 100 µM | – | – | – | – | – | – | – |
| CC(C)N(C(=O)C1(C)CC1)C(C)C | > 100 µM | > 100 µM | > 100 µM | > 100 µM | > 100 µM | > 100 µM | > 100 µM | – | > 100 µM | > 100 µM | > 100 µM | > 100 µM | > 100 µM | – | – | – | – | – | – | – |
| Cc1ccc2[nH]c3c(C)c4c(c(C)c3c2c1)CN(C)C=C4 | 2.35 µM | 3.09 µM | 4.74 µM | 13.6 µM | 10.6 µM | 13.1 µM | 0.975 µM | 17 µM | 4.03 µM | 2.94 µM | 0.682 µM | 10 µM | 3.15 µM | – | – | – | – | – | – | – |
| O=c1c(-c2ccccc2)c2oc(c1-c1ccccc1)CS(=O)(=O)CCC2 | 33.7 µM | 58.3 µM | > 100 µM | – | 26.3 µM | 58.8 µM | 83.3 µM | 45.8 µM | 38.3 µM | 85 µM | 44.2 µM | > 100 µM | 54.3 µM | – | – | – | – | – | – | – |
| COc1ccc(/C=C/C(=O)C(C)(C)CN2CCCCC2)cc1 | 28.9 µM | 41.6 µM | – | 32.2 µM | 30.8 µM | 36.4 µM | 59.8 µM | 29.6 µM | 65.9 µM | 35.5 µM | 44.1 µM | 80.7 µM | 65.5 µM | – | – | – | – | – | – | – |
| CC(=O)NC(CCCCN(Cc1ccccc1)C(=O)NCCCl)C(=O)NCc1ccccc1 (stereo unspecified) | > 100 µM | > 100 µM | > 100 µM | > 100 µM | > 100 µM | > 100 µM | > 100 µM | – | > 100 µM | – | > 100 µM | > 100 µM | > 100 µM | – | – | – | – | – | – | – |
| O=C1OC2C(O)COC2(O)C1(O)C(C[N+](=O)[O-])c1ccc(Cl)cc1 (stereo unspecified) | 4.07 µM | 9.87 µM | 54.2 µM | 13.6 µM | 3.34 µM | 3.93 µM | 31.3 µM | 7.35 µM | 10.8 µM | 21.6 µM | 37.9 µM | 51.4 µM | 22.8 µM | 48.7 µM | 34.2 µM | 13.1 µM | – | – | – | – |
| O=C(CSc1nnc(Cc2ccccc2)o1)Nc1cccc(Cl)c1 | > 100 µM | > 100 µM | – | > 100 µM | > 100 µM | > 100 µM | > 100 µM | > 100 µM | > 100 µM | > 100 µM | > 100 µM | > 100 µM | – | – | – | – | – | – | – | – |
| COc1ccc(/C=N/N=C(\N)NO)c(Cl)c1O | > 100 µM | – | > 100 µM | – | > 100 µM | > 100 µM | > 100 µM | > 100 µM | > 100 µM | 40.6 µM | > 100 µM | > 100 µM | > 100 µM | – | – | – | – | – | – | – |
| COc1cc(OC)c2ssc3c(OC)cc(OC)c4ssc1c2-c43 | > 100 µM | > 100 µM | – | > 100 µM | > 100 µM | > 100 µM | > 100 µM | > 100 µM | > 100 µM | > 100 µM | > 100 µM | > 100 µM | > 100 µM | – | – | – | – | – | – | – |
| O=C(/C=C/c1ccc(O)c(O)c1)OC1C[C@@](O)(C(=O)O)C[C@@H](O)[C@H]1OC(=O)/C=C/c1ccc(O)c(O)c1 (stereo partly specified) | > 100 µM | > 100 µM | > 100 µM | > 100 µM | > 100 µM | > 100 µM | > 100 µM | > 100 µM | > 100 µM | > 100 µM | – | > 100 µM | > 100 µM | – | – | – | – | – | – | – |
| COc1c(C)c2c(c3c1c(=O)c1ccccc1n3C)C=CC(C)(C)O2 | 94.4 µM | 38 µM | 88.8 µM | 37.9 µM | 44.8 µM | > 100 µM | 91.4 µM | 32.9 µM | 55.1 µM | 31.1 µM | > 100 µM | > 100 µM | 33.4 µM | – | – | – | – | – | – | – |
| O=c1cc(-c2ccccc2)oc2cc(OCC(O)COc3ccc4c(=O)cc(-c5ccccc5)oc4c3)ccc12 | > 100 µM | > 100 µM | 95.5 µM | > 100 µM | > 100 µM | > 100 µM | 90.3 µM | > 100 µM | > 100 µM | > 100 µM | – | > 100 µM | > 100 µM | – | – | – | – | – | – | – |
| CC(/C=C/C(=O)c1sc(-n2nc(-c3ccccc3)cc2-c2ccccc2)nc1C)=C\c1ccccc1 | > 100 µM | > 100 µM | – | > 100 µM | > 100 µM | > 100 µM | > 100 µM | > 100 µM | > 100 µM | > 100 µM | > 100 µM | > 100 µM | > 100 µM | – | – | – | > 100 µM | > 100 µM | > 100 µM | 9.73 µM |
